# Data: ChEMBL document CHEMBL5321219, “Selective degradation of cellular BRD3 and BRD4-L promoted by PROTAC molecules in six cancer cell lines” (Eur J Med Chem, 2023)
# Active and inactive are the calls of the source. The rule behind the calls is not given here.
# Tests used:
# [1] = Toxicity in SCID mouse xenografted with human MM1.S cells assessed as loss of body weight at 5 mg/kg, iv administered once daily via tail vein for 8 consecutive days and measured twice a week; format: organism-based; conditions: in vivo, 192 h, time 8 day
# [2] = test system: MM1.S; test: Downregulation of c-Myc expression in human MM1.S cells at 30 nM measured after 1 to 24 hrs by Western blot analysis; format: functional, cell-based; conditions: time 1-24 hrs
# [3] = Half life in C57 mouse at 3 mg/kg, iv measured upto 24 hrs by LC-MS/MS analysis; format: ADME, organism-based; conditions: in vivo
# [4] = molecular target: T1, Protein cereblon/Bromodomain-containing protein 3 (Homo sapiens) (UniProt Q15059+Q96SW2); test: PROTAC activity at CRBN/BRD3 in human MM1.S cells assessed as induction of protein degradation at 1 uM measured after 1 to 24 hrs by Western blot analysis; format: cell-based; conditions: time 1-24 hrs
# T1 sequence (Q15059 2-726 limits assumed): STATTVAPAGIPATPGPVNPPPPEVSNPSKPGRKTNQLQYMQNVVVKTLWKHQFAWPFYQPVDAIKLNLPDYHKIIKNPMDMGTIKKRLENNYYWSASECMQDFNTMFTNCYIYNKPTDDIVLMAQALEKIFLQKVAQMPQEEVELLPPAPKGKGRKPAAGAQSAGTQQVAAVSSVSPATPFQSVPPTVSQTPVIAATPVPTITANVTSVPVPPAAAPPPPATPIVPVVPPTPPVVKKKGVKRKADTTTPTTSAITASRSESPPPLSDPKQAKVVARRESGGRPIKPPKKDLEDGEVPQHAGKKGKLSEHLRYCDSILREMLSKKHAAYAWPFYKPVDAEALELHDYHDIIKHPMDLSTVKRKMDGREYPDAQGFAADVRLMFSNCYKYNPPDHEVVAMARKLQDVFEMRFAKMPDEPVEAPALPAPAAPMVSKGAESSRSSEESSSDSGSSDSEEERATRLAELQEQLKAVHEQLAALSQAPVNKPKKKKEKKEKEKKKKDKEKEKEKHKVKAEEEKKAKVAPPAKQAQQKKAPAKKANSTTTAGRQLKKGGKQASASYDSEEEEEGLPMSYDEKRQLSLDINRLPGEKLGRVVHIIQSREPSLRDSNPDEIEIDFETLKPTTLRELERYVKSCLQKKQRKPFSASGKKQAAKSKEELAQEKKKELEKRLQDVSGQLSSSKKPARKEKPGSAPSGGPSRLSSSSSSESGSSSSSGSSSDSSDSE
# T1 sequence (Q96SW2 whole entry partner): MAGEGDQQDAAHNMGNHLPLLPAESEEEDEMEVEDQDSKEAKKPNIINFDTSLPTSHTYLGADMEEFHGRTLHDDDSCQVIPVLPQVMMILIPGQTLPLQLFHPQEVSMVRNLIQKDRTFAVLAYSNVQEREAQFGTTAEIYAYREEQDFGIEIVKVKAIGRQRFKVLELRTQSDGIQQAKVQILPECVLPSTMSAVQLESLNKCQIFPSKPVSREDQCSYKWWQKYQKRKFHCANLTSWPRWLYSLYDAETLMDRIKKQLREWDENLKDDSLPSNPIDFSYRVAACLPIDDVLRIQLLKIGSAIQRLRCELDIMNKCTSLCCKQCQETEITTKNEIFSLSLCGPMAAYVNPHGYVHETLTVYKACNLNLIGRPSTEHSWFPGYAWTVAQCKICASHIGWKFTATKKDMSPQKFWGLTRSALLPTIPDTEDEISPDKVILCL
# [5] = AUC (0 to t) in C57 mouse at 3 mg/kg, po measured upto 24 hrs by LC-MS/MS analysis; format: ADME, organism-based; set-up: time < 24 hrs, dose 3 mg/kg, route po; conditions: in vivo
# [6] = test system: MM1.S; test: Downregulation of c-Myc protein expression in human MM1.S cells at 0.1 to 30 nM measured after 24 hrs by Western blot analysis; format: functional, cell-based; conditions: dose 0.1-30 nM
# [7] = molecular target: T1, Protein cereblon/Bromodomain-containing protein 3 (Homo sapiens); test: In vivo PROTAC activity at CRBN/BRD3 in SCID mouse xenografted with human MM1.S cells assessed as reduction in BRD3 protein level in tumor at 5 mg/kg, iv measured after 24 hrs by Western blot analysis; format: functional, organism-based
# [8] = Cmax in C57 mouse at 3 mg/kg, po measured upto 24 hrs by LC-MS/MS analysis; format: ADME, organism-based; set-up: dose 3 mg/kg, time < 24 hrs, route po; conditions: in vivo
# [9] = molecular target: T2, Protein cereblon/Bromodomain-containing protein 4 (Homo sapiens) (UniProt O60885+Q96SW2); test: PROTAC activity at CRBN/BRD4-L in human MM1.S cells assessed as induction of protein degradation at 30 nM by Western blot analysis; format: cell-based; conditions: TDE = time-dependent effect
# T2 sequence (Q96SW2 whole entry, looked up, other chains not shown): as the sequence (Q96SW2 whole entry partner) above
# [10] = Tmax in C57 mouse at 3 mg/kg, iv measured upto 24 hrs by LC-MS/MS analysis; format: ADME, organism-based; conditions: in vivo
# [11] = molecular target: T1, Protein cereblon/Bromodomain-containing protein 3 (Homo sapiens); test: In vivo PROTAC activity at CRBN/BRD3 in SCID mouse xenografted with human MM1.S cells assessed as reduction in BRD3 protein level in tumor at 1 to 5 mg/kg, iv measured after 6 hrs by Western blot analysis; format: functional, organism-based; conditions: dose 1-5 mg/kg
# [12] = Cmax in C57 mouse at 3 mg/kg, iv measured upto 24 hrs by LC-MS/MS analysis; format: ADME, organism-based; set-up: dose 3 mg/kg, time < 24 hrs, route iv; conditions: in vivo
# [13] = molecular target: T1, Protein cereblon/Bromodomain-containing protein 3 (Homo sapiens); test: In vivo PROTAC activity at CRBN/BRD3 in SCID mouse xenografted with human MM1.S cells assessed as reduction in BRD3 protein level in tumor at 1 mg/kg, iv measured after 24 hrs by Western blot analysis; format: functional, organism-based
# [14] = Clearance in C57 mouse at 3 mg/kg, iv measured upto 24 hrs by LC-MS/MS analysis; format: ADME, organism-based; conditions: in vivo
# [15] = molecular target: T2, Protein cereblon/Bromodomain-containing protein 4 (Homo sapiens); test: PROTAC activity at CRBN/BRD4-L in human MM1.S cells assessed as induction of protein degradation at 1 uM measured after 1 to 24 hrs by Western blot analysis; format: cell-based; conditions: time 1-24 hrs
# [16] = test system: MV4-11; test: Antiproliferative activity against human MV4-11 cells assessed as cell growth inhibition measured after 3 days by CellTitre-Glo assay; format: functional, cell-based; conditions: MV4-11, 72 h
# [17] = molecular target: T3, Protein cereblon/Bromodomain-containing protein 2 (Homo sapiens) (UniProt P25440+Q96SW2); test: PROTAC activity at CRBN/BRD2 in human MM1.S cells assessed as induction of protein degradation at 1 uM measured after 1 to 24 hrs by Western blot analysis; format: cell-based; conditions: time 1-24 hrs
# T3 sequence (P25440 whole entry, looked up): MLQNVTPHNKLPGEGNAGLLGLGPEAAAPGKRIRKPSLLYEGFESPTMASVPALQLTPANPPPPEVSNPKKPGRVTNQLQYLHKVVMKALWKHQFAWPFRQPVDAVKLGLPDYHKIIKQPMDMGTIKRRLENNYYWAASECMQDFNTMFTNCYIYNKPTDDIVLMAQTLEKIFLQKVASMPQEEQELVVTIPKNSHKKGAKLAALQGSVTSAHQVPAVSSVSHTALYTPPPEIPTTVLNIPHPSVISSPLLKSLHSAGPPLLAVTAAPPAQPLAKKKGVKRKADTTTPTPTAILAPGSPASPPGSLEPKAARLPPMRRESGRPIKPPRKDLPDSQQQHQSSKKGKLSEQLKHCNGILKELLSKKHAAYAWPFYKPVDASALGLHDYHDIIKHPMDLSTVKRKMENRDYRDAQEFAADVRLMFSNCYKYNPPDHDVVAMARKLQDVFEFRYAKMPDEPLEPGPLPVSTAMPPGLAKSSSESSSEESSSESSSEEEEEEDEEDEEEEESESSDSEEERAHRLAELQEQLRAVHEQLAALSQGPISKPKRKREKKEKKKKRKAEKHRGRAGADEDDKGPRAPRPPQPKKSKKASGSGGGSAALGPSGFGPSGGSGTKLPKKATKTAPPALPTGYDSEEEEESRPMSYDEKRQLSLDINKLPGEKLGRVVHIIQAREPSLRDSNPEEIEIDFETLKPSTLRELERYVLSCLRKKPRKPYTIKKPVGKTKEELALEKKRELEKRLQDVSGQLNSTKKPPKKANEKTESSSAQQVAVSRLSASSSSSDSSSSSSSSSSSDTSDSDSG
# T3 sequence (Q96SW2 whole entry, looked up): as the sequence (Q96SW2 whole entry partner) above
# [18] = Clearance in C57 mouse at 3 mg/kg, po measured upto 24 hrs by LC-MS/MS analysis; format: ADME, organism-based; conditions: in vivo
# [19] = Toxicity in SCID mouse xenografted with human MM1.S cells assessed as effect on body weight at 1 mg/kg, iv administered once daily via tail vein for 14 consecutive days and measured twice a week; format: organism-based; conditions: in vivo, 336 h, time 14 day
# [20] = Tmax in C57 mouse at 3 mg/kg, po measured upto 24 hrs by LC-MS/MS analysis; format: ADME, organism-based; conditions: in vivo
# [21] = molecular target: T2, Protein cereblon/Bromodomain-containing protein 4 (Homo sapiens); test: In vivo PROTAC activity at CRBN/BRD4-L in SCID mouse xenografted with human MM1.S cells assessed as reduction in BRD4-L protein level in tumor at 1 to 5 mg/kg, iv measured after 6 hrs by Western blot analysis; format: functional, organism-based; conditions: dose 1-5 mg/kg
# [22] = test system: MM1.S; test: Antiproliferative activity against human MM1.S cells assessed as cell growth inhibition measured after 4 days by CellTitre-Glo assay; format: functional, cell-based; conditions: 96 h
# [23] = molecular target: T1, Protein cereblon/Bromodomain-containing protein 3 (Homo sapiens); test: PROTAC activity at CRBN/BRD3 in human MM1.S cells assessed as induction of protein degradation at 30 nM by Western blot analysis; format: cell-based; conditions: TDE = time-dependent effect
# [24] = molecular target: T4, Bromodomain-containing protein 3 (Homo sapiens, UniProt Q15059); test: Binding affinity to recombinant human BRD3 BD2 (306 to 417 residues) assessed as inhibition constant by fluorescence polarization binding assay
# T4 sequence (Q15059 whole entry, the tested form may be a part): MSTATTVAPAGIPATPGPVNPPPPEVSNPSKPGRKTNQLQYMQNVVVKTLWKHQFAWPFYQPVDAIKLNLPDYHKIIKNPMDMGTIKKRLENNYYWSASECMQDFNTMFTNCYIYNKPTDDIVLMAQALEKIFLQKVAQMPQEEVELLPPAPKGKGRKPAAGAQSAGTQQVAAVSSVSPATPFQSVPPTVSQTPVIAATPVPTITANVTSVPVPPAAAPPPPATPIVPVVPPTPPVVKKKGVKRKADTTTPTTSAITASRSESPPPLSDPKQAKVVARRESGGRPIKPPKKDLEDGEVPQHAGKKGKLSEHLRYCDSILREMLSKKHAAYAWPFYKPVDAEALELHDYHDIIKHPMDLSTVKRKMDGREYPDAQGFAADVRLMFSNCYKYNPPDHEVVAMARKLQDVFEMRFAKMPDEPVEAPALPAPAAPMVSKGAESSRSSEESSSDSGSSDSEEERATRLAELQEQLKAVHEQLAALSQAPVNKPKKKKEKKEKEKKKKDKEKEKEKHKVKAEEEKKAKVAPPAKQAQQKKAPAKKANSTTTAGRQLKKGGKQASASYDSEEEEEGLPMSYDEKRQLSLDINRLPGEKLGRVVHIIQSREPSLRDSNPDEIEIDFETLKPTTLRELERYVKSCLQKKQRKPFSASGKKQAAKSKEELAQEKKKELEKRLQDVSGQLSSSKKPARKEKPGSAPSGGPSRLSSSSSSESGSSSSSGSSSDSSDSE
# [25] = test system: MM1.S; test: Induction of cell cycle arrest in human MM1.S cells assessed as accumulation of cells at G1 phase incubated for 24 hrs by flow cytometry analysis; format: functional, cell-based; conditions: dose 1-300 nM
# [26] = molecular target: T4, Bromodomain-containing protein 3; test: Binding affinity to recombinant human BRD3 BD1 (24 to 144 residues) assessed as inhibition constant by fluorescence polarization binding assay
# [27] = Oral bioavailability in C57 mouse at 3 mg/kg measured upto 24 hrs by LC-MS/MS analysis; format: ADME, organism-based; conditions: in vivo
# [28] = molecular target: T3, Protein cereblon/Bromodomain-containing protein 2 (Homo sapiens); test: In vivo PROTAC activity at CRBN/BRD2 in SCID mouse xenografted with human MM1.S cells assessed as reduction in BRD2 protein level in tumor at 5 mg/kg, iv measured after 24 hrs by Western blot analysis; format: functional, organism-based
# [29] = test system: MM1.S; test: Antitumor activity against human MM1.S cells xenografted in SCID mouse assessed as tumor growth inhibition at 5 mg/kg, iv administered once daily via tail vein for 8 consecutive days and measured twice a week relative to control; format: functional; conditions: 192 h, time 8 day, read-out: TGI
# [30] = molecular target: T2, Protein cereblon/Bromodomain-containing protein 4 (Homo sapiens); test: PROTAC activity at CRBN/BRD4-S in human MM1.S cells assessed as induction of protein degradation at 1 uM measured after 1 to 24 hrs by Western blot analysis; format: cell-based; conditions: time 1-24 hrs
# [31] = molecular target: T2, Protein cereblon/Bromodomain-containing protein 4 (Homo sapiens); test: In vivo PROTAC activity at CRBN/BRD4-L in SCID mouse xenografted with human MM1.S cells assessed as reduction in BRD4-L protein level in tumor at 5 mg/kg, iv measured after 24 hrs by Western blot analysis; format: functional, organism-based
# [32] = test system: MM1.S; test: Antitumor activity against human MM1.S cells xenografted in SCID mouse assessed as tumor growth inhibition at 1 mg/kg, iv administered once daily via tail vein for 14 consecutive days and measured twice a week relative to control; format: functional; conditions: 336 h, time 14 day, read-out: TGI
# [33] = molecular target: T2, Protein cereblon/Bromodomain-containing protein 4 (Homo sapiens); test: In vivo PROTAC activity at CRBN/BRD4-S in SCID mouse xenografted with human MM1.S cells assessed as reduction in BRD4-S protein level in tumor at 5 mg/kg, iv measured after 24 hrs by Western blot analysis; format: functional, organism-based
# [34] = AUC (0 to t) in C57 mouse at 3 mg/kg, iv measured upto 24 hrs by LC-MS/MS analysis; format: ADME, organism-based; set-up: dose 3 mg/kg, time < 24 hrs, route iv; conditions: in vivo
# [35] = molecular target: T3, Protein cereblon/Bromodomain-containing protein 2 (Homo sapiens); test: In vivo PROTAC activity at CRBN/BRD2 in SCID mouse xenografted with human MM1.S cells assessed as reduction in BRD2 protein level in tumor at 1 to 5 mg/kg, iv measured after 6 hrs by Western blot analysis; format: functional, organism-based; conditions: dose 1-5 mg/kg
# [36] = molecular target: T2, Protein cereblon/Bromodomain-containing protein 4 (Homo sapiens); test: In vivo PROTAC activity at CRBN/BRD4-S in SCID mouse xenografted with human MM1.S cells assessed as reduction in BRD4-S protein level in tumor at 1 to 5 mg/kg, iv measured after 6 hrs by Western blot analysis; format: functional, organism-based; conditions: dose 1-5 mg/kg
smiles,measurement,setting,value
Cc1nnc2n1-c1ccc(-c3ccc(CN(C)CCCCc4cccc5c4CN(C4CCC(=O)NC4=O)C5=O)cc3)cc1C(Nc1ccc(Cl)cc1)CC2 (stereo unspecified),Activity,[1],Toxic
same,Activity,[2],Active
same,half-life,[3],30 min
same,Activity,[4],Active
same,AUCt,[5],26 ng·h/mL
same,Activity,[6],Active
same,Activity,[7],Active
same,Cmax,[8],51 ng/mL
same,Activity,[9],Tde
same,Tmax,[10],6 min
same,Activity,[11],Active
same,Cmax,[12],7410 ng/mL
same,Activity,[13],inactive
same,clearance,[14],16.9 mL/min/kg
same,Activity,[15],Active
same,IC50,[16],7.46 nM
same,Activity,[17],Active
same,CL/F,[18],1240 mL/min/kg
same,Activity,[19],Non-Toxic
same,Tmax,[20],24 min
same,Activity,[21],Active
same,IC50,[22],85.4 nM
same,Activity,[23],Tde
same,Ki,[24],2.8 nM
same,Activity,[25],Dose-Dependent Effect
same,Ki,[26],16.9 nM
same,F,[27],2.14%
same,Activity,[28],inactive
same,inhibition in vivo at 5 mg/kg,[29],64%
same,Activity,[30],inactive
same,Activity,[31],inactive
same,inhibition in vivo at 1 mg/kg,[32],40%
same,Activity,[33],inactive
same,AUCt,[34],2961 ng·h/mL
same,Activity,[35],inactive
same,Activity,[36],inactive
